Patent publication US12599597B2, “Substituted N-benzhydrylacetamide inhibitors of jumanji domain histone demethylases for the treatment of cancer” (University of Kentucky Research Foundation, priority 2020, dated 2026)

Columns and labels:
[1] = molecular target: T1, JMJD2C (KDM4C) (Homo sapiens, UniProt Q9H3R0); experiment: Histone demethylase assay, purified enzyme panel; type: biochemical; details: 58B1, 10 μM
T1 sequence (Q9H3R0 1-1056): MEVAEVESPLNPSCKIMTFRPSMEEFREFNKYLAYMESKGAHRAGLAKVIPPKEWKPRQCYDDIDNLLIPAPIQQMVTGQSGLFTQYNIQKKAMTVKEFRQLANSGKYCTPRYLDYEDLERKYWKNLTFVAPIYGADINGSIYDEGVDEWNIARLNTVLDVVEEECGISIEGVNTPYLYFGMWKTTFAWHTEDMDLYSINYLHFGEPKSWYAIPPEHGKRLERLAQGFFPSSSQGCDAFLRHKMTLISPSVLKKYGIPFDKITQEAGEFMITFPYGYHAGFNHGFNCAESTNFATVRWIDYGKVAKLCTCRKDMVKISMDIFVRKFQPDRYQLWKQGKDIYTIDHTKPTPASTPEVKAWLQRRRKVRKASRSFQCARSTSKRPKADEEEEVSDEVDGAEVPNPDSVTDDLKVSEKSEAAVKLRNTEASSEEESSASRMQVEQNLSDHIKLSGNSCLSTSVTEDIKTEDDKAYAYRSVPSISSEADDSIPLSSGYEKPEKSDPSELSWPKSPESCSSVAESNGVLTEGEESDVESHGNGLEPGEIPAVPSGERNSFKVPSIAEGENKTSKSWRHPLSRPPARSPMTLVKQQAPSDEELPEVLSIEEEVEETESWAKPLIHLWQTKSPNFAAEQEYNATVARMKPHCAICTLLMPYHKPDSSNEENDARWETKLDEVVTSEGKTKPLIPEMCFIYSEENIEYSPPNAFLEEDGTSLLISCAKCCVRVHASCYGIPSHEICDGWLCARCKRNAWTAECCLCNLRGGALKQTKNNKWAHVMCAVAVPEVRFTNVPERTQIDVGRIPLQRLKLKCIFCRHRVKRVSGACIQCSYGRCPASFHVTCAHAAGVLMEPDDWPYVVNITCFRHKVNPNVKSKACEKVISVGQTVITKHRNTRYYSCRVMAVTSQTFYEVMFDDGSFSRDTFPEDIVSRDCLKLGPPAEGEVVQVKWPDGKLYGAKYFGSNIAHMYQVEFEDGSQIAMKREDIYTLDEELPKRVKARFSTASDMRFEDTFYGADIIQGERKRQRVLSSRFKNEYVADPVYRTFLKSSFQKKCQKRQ
Description: (§1) Histone Demethylase Assay
(§2) To further examine the effects of 58B1 on histone demethylase, we screened a panel of purified histone demethylases was screened.

[2] = molecular target: T2, JMJD1A (KDM3A) (Homo sapiens, UniProt Q9Y4C1); experiment: Histone demethylase assay / KDM3A enzymatic activity in vitro; type: biochemical
T2 sequence (Q9Y4C1 1-1321): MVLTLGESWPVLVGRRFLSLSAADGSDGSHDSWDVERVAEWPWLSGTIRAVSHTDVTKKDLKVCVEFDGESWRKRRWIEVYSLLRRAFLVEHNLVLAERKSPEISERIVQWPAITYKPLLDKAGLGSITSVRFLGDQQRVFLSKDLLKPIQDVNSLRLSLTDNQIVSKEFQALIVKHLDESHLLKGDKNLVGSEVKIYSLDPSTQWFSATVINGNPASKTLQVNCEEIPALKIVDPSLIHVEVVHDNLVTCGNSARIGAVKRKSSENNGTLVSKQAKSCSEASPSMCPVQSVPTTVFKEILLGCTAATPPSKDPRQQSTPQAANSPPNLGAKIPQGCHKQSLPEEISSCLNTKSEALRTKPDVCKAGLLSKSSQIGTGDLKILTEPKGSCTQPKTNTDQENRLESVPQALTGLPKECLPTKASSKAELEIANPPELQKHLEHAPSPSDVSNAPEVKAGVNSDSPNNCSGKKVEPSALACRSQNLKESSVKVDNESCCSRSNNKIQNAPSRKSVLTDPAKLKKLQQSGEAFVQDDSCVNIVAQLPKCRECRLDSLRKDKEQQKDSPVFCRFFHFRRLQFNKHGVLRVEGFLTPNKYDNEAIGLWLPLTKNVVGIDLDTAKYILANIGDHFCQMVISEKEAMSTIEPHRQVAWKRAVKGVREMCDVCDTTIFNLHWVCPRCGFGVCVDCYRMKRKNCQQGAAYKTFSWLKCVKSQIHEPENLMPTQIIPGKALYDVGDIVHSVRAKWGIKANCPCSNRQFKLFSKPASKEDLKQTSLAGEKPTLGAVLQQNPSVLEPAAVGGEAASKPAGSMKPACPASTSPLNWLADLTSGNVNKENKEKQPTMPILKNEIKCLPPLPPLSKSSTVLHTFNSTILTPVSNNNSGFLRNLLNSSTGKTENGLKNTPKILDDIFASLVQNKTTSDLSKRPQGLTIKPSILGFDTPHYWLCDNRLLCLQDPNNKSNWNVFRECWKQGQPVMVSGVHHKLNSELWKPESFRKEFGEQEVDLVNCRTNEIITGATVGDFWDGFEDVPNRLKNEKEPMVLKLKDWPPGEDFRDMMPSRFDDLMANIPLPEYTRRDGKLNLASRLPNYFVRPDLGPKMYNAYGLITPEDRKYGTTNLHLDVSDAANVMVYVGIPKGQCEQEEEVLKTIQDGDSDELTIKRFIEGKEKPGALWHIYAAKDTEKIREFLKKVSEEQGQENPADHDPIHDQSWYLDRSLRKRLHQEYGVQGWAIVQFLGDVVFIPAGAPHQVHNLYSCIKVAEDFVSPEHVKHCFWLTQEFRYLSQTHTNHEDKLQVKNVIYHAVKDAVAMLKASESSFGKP
Description: as §1, §2
Identification of KDM3A as a target of CBA-1. KDM3A regulated H3K9Me^2 and underwent significant upregulation in CRC. To test if CBA-1 targeted KDM3A, a biotinylated analog CBA-B2 (FIG. 7A) was synthesized. […] Knocking-down KDM3A by shRNA inhibited cell proliferation (FIG. 7D) and Wnt target gene expression in LS174T CRC cells (FIG. 7E).
Repurposing drugs as CBA-1 analogs and KDM3 inhibitors. CBA-1 is a specific and potent KDM3A inhibitor. As backup candidates, two approved drugs were identified as CBA-1 analogs and KDM3A inhibitors. Based on the docking study (FIGS. 8A-B), the N and OH groups (red color in FIG. 12A) are critical in binding the Mn^2+ in KDM3A. […] A virtual screening was performed and several antibiotics that have similar structures were identified. Two of these antibiotics, clioquinol and nitroxoline (FIG. 12B), indeed inhibited the enzymatic activities of KDM3 (FIGS. 12C and D). These two drugs were tested in LS174T tumor xenograft model in SCID mice. […] Nitroxoline has been used in Europe for over 50 years as an antibiotic. It has anticancer effects, but the mechanism remains unclear.

CCCC(=O)NC(c1ccc(N(CC)CC)cc1)c1cc(Cl)c2cccnc2c1O (stereo not drawn) [58B1]
inhibition at 10 µM [1]: 72% | inhibition at 10 µM ([2]; 58B1, 10 μM): 99% | KDM3A activity in vitro, dose-response study ([2]; at low micromolar levels): inhibited
